Legend:
male Sprague Dawley rats = assay: Plasma prolactin levels in rats (ELISA); format: in vivo, rat
Procedure: Another unwanted side effect of certain antipsychotics is hyperprolactinemia. To examine prolactin levels following the administration of a GPR52 agonist, male Sprague Dawley rats (Harlan Laboratories, San Diego, Calif.) were single-housed, handled, and moved to a private housing room one week prior to testing. Rats were individually handled and sham dosed P.O. for four days prior to testing. For an assessment of haloperidol (0.1 and 1 mg/kg P.O.) and Compound 13 (1, 10, and 100 mg/kg P.O.) on basal prolactin release, rats were dosed with acidic 20% HP-β-cyclodextrin (HBCD) or compound at 3 mL/kg P.O. in their housing room 60 minutes prior to harvest. For interaction studies, rats were dosed with 20% HBCD or Compound 13 (10 mg/kg P.O.) 90 minutes prior to harvest, and additionally with 20% HBCD vehicle or haloperidol (0.3 and 1 mg/kg P.O.) 60 minutes prior to harvest. Rats were individually taken to the harvest room, and trunk blood was collected into 4 mL EDTA tubes following live decapitation. Samples were stored on wet ice until collection was complete, then spun in a cooling centrifuge at 2400 rpm for 20 minutes. Plasma was collected and frozen for subsequent analysis using a Rat Prolactin ELISA kit (ALPCO Diagnostics: Cat#55-PRLRT-E01).
Briefly, frozen plasma was thawed on ice and mixed prior to initiation of the ELISA. Twenty-five microliters of sample plasma along with serially diluted standards (lyophilized purified rat prolactin diluted with rat prolactin calibrator/sample diluent), and calibrator/sample diluent used as a blank were placed in a 96-well plate provided with the ELISA kit. Samples, blank, and standards were measured in duplicate. […] Fifty microliters of stop solution (2M hydrochloric acid) was added to the wells prior to reading on a 96-well plate reader (SpectraMax® 340PC; Molecular Devices, Sunnyvale, Calif.) at […]. The quantity of prolactin in each sample was calculated using a standard curve.

male Sprague-Dawley rats = assay: Prepulse inhibition of the startle response in rats; format: in vivo, rat; conditions: 5 or 20 mg/kg P.O., FIGS. 26A-B
Procedure: Prepulse inhibition testing was conducted in enclosed startle chambers (Kinder Scientific StartleMonitor System, Kinder Scientific, Poway, Calif.) in which animals were placed into restrainers secured onto startle-sensing plates. A constant background white noise of 65 dB was audible in the chambers throughout testing. […]
For each animal, mean startle amplitude for each trial type during the 35-trial block was calculated, and percent prepulse inhibition (% PPI) for each prepulse intensity was calculated as the percent decrease in the mean startle amplitude in response to a given prepulse and 120 dB startle stimulus relative to the mean startle amplitude in response to the 120 dB startle stimulus alone. The % PPI was then calculated for each animal as the mean % PPI across all four prepulse intensities. […]

`O=C(NCCO)c1cccc2c1CCN2c1cc(Cc2cccc(C(F)(F)F)c2)ccn1` [Compound 13, N-(2-Hydroxyethyl)-1-(4-(3-(trifluoromethyl)benzyl)pyridin-2-yl)indoline-4-carboxamide] was tested. Which “haloperidol-induced increase in prolactin levels” value (male Sprague Dawley rats; Compound 13 10 mg/kg P.O., at a low dose of haloperidol, FIG. 28B) did it give?
The value was “reversed”.

What about the prolactin levels (male Sprague Dawley rats; basal prolactin release, haloperidol 0.1 and 1 mg/kg P.O., Compound 13 1, 10, and 100 mg/kg P.O., FIG. 28A) of the same compound?
The prolactin levels was “decreased”.

And the “MK-801-induced disruption in % PPI in 'good performers'” value (male Sprague-Dawley rats; MK-801 0.3 mg/kg SC)?
The value was “reversed”.

And the “amphetamine-induced disruption in % PPI in 'good performers'” value (male Sprague-Dawley rats; amphetamine 0.5 mg/kg SC)?
Its value is “reversed”.

From patent publication US9676758B2, “1-heteroaryl-indoline-4-carboxamides as modulators of GPR52 useful for the treatment or prevention of disorders related thereto” (Arena Pharmaceuticals, Inc., priority 2015, dated 2017)
